Reference: ChEMBL document CHEMBL1149697, “Identification of dissociated non-steroidal glucocorticoid receptor agonists” (Bioorg Med Chem Lett, 2007)

What was measured:
HFF [1] = assay: Antiinflammatory activity assessed as upregulation of aromatase in HFF cells by transactivation assay relative to dexamethasone; format: functional, Homo sapiens; parameters: concentration or dose not given beside the values
Progesterone receptor = biological target: T1, Progesterone receptor (Homo sapiens, UniProt P06401); assay: Displacement of TAMRA labeled mifepristone at human progesterone receptor in insect cell
T1 sequence (P06401 whole entry): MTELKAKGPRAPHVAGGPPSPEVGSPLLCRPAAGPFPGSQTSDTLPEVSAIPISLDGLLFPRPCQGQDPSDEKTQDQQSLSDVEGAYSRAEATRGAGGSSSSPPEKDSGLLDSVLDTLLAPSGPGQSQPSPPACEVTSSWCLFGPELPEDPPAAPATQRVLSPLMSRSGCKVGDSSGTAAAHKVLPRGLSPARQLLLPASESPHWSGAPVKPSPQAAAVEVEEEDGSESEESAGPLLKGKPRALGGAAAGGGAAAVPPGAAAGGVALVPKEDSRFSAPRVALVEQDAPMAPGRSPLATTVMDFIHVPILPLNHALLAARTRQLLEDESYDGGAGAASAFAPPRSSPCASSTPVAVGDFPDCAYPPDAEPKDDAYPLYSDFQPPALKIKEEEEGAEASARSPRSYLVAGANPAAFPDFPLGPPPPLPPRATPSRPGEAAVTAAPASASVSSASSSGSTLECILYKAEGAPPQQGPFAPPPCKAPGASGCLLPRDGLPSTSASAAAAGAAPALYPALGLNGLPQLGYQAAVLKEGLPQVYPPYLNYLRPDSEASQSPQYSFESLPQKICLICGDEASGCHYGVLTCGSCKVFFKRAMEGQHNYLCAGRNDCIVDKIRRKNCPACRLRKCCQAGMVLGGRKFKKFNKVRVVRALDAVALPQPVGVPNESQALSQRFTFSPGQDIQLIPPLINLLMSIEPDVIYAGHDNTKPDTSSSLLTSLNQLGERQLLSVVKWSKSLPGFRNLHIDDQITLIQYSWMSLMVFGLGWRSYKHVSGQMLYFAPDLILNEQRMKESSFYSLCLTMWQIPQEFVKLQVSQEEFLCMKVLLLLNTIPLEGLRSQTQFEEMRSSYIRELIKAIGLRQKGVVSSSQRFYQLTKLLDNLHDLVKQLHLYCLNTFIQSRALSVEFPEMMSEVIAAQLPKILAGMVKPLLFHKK

Glucocorticoid receptor = biological target: T2, Glucocorticoid receptor (Homo sapiens, UniProt P04150)
T2 sequence (P04150 whole entry): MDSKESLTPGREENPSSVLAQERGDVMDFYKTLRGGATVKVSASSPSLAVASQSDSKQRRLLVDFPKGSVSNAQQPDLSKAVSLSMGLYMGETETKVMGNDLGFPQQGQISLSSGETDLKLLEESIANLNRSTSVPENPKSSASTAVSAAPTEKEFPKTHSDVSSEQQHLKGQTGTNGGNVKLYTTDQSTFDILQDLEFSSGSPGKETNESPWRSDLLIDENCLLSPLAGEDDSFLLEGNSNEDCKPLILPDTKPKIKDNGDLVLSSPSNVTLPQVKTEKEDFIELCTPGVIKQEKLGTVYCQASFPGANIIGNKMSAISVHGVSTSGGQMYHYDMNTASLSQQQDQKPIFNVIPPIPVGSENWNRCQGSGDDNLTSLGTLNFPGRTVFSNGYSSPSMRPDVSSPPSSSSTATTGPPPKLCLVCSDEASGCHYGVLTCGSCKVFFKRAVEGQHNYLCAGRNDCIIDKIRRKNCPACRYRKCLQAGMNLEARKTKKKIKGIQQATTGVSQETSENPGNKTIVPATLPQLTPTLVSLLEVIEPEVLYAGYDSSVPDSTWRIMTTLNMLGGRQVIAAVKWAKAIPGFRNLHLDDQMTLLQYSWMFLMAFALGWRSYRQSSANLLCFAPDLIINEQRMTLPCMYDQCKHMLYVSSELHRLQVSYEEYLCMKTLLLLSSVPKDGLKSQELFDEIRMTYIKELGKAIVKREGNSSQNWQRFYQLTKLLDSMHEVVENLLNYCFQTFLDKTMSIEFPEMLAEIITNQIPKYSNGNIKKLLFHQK

Homo sapiens = species: Homo sapiens; assay: Selectivity ratio of human GR over human PR
HFF [2] = assay: Antiinflammatory activity assessed as inhibition of IL6 production in HFF cells by transrepression assay relative to dexamethasone; format: functional, Homo sapiens
HFF [3] = assay: Antiinflammatory activity assessed as upregulation of aromatase in HFF cells by transactivation assay; format: functional, cell-based; details: Homo sapiens
[4] = biological target: T3, Mineralocorticoid receptor (Homo sapiens, UniProt P08235); assay: Displacement of TAMRA labeled dexamethasone at human mineralocorticoid receptor in insect cell
T3 sequence (P08235 whole entry): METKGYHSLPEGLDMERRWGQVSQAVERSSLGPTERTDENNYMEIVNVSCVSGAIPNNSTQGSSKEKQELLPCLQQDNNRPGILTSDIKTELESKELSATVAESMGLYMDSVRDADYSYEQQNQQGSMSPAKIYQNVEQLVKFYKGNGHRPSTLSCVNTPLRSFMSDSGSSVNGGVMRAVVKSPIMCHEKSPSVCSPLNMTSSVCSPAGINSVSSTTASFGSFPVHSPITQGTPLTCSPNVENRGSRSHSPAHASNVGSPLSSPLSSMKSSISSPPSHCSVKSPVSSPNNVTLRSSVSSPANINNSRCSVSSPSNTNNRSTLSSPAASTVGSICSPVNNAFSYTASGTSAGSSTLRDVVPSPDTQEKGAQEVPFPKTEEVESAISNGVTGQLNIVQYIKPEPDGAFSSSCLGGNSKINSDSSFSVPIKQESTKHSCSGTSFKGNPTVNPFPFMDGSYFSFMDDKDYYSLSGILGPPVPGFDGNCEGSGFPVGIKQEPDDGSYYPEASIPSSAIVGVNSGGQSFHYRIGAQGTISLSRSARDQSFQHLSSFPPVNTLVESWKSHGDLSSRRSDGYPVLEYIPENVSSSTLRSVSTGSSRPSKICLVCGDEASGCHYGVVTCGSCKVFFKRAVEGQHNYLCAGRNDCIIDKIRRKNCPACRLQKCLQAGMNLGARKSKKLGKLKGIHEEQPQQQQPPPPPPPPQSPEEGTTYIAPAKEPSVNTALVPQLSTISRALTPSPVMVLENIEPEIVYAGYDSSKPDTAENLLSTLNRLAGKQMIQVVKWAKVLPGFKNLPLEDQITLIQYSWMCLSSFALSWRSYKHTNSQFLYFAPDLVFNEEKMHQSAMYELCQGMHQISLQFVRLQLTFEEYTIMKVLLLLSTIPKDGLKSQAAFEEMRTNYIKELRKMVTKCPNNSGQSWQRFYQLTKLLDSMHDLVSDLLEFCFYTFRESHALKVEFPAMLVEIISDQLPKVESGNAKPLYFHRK

HFF [5] = assay: Antiinflammatory activity assessed as inhibition of IL1 stimulated IL6 production in HFF cells by transrepression assay; format: functional, cell-based; details: Homo sapiens

| IC50 (Progesterone receptor) [nM] | IC50 (Glucocorticoid receptor) [nM] | IC50 [4] [nM] | SMILES | Activity (HFF [1]) [%] | Ratio IC50 (Homo sapiens) | Efficacy (HFF [2]) [%] | EC50 (HFF [3]) [nM] | EC50 (HFF [5]) [nM] |
| --- | --- | --- | --- | --- | --- | --- | --- | --- |
| 390 | 11 | 300 | COc1ccc(F)cc1C(C)(C)CC(O)(Cc1cc(C)c(C#N)c(C)c1)C(F)(F)F (stereo not drawn) | 115 | 35 | 95 | 8 | 4 |
| > 354 | 55 | 220 | COc1ccc(F)cc1C(C)(C)CC(O)(Cc1cc(C)cc(C)c1)C(F)(F)F (stereo not drawn) | 80 | – | 55 | 285 | 280 |

| SMILES | IC50 (Progesterone receptor) [nM] | IC50 (Glucocorticoid receptor) [nM] | IC50 [4] [nM] | Activity (HFF [1]) [%] | Ratio IC50 (Homo sapiens) | Efficacy (HFF [2]) [%] | EC50 (HFF [3]) [nM] | EC50 (HFF [5]) [nM] |
| --- | --- | --- | --- | --- | --- | --- | --- | --- |
| COc1ccc(F)cc1C(C)(C)CC(O)(Cc1cc(C)cc(C)c1C#N)C(F)(F)F (stereo not drawn) | 1800 | 8 | 250 | 75 | 225 | 83 | 250 | 40 |
